In patent US20070049564A1 (Wyeth, priority 2005, published 2007):
≈ marks a conversion by molar mass, not a printed value. Like-named read-outs stand apart in the source and are kept apart here.

Tests used:
E. coli GC 2231 = test: MIC, broth microdilution; details: Escherichia coli, GC2231, E. coli GC 2231
E. coli GC 2232 = test: MIC, broth microdilution; details: Escherichia coli, GC2232, E. coli GC 2232
E. coli GC 2272 = test: MIC, broth microdilution; details: Escherichia coli, GC2272, E. coli GC 2272
E. coli GC 4560 = test: MIC, broth microdilution; details: Escherichia coli, GC4560, E. coli GC 4560
E. coli GC 6465 = test: MIC, broth microdilution; details: Escherichia coli, GC6465, E. coli GC 6465
Protocol: Antimicrobial susceptibility testing. The in vitro activities of the antibiotics are determined by the broth microdilution method as recommended by the National Committee for Clinical Laboratory Standards (NCCLS) (1). Mueller-Hinton II broth (MHBII)(BBL Cockeysville, Md.) is the medium employed in the testing procedures. Microtiter plates containing serial dilutions of each antimicrobial agent are inoculated with each organism to yield the appropriate density (10^5 CFU/ml) in a 100 μl final volume. The plates are incubated for 18-22 hours at 35° C. in ambient air.
Representative compounds were first incubated in mouse serum for an hour prior to the in vitro testing against a panel of selected gram-positive and gram-negative bacteria strains. All compounds were also pre-incubated in water for an hour prior to testing as control.

E. coli GC 3226 = test: MIC, broth microdilution; details: Escherichia coli, GC3226, E. coli GC 3226
E. coli GC 2203 = test: MIC, broth microdilution; details: Escherichia coli, GC2203, E. coli GC 2203
S. typhimurium GC 2172 = test: MIC, broth microdilution; details: Salmonella enterica, TYPHIMURIUM, S. typhimurium GC 2172
S. aureus GC 6466 = test: MIC, broth microdilution; details: Staphylococcus aureus, GC6466, S. aureus GC 6466
S. aureus GC 6467 = test: MIC, broth microdilution; details: Staphylococcus aureus, GC6467, S. aureus GC 6467
S. aureus GC 4536 = test: MIC, broth microdilution; details: Staphylococcus aureus, GC4536, S. aureus GC 4536
S. aureus GC 6469 = test: MIC, broth microdilution; details: Staphylococcus aureus, GC6469, S. aureus GC 6469
E. faecalis GC 4555 = test: MIC, broth microdilution; details: Enterococcus faecalis, GC4555, E. faecalis GC 4555
E. faecalis GC 2265 = test: MIC, broth microdilution; details: Enterococcus faecalis, GC2265, E. faecalis GC 2265
E. faecalis GC 2267 = test: MIC, broth microdilution; details: Enterococcus faecalis, GC2267, E. faecalis GC 2267
E. faecium GC 2243 = test: MIC, broth microdilution; details: Enterococcus faecium, GC2243, E. faecium GC 2243
S. pneumoniae* GC 4465 = test: MIC, broth microdilution; details: Streptococcus pneumoniae, S. pneumoniae* GC 4465
S. agalactiae GC 4564 = test: MIC, broth microdilution; details: Streptococcus agalactiae, GC4564, S. agalactiae GC 4564
E. coli = test: Range of MIC for E. coli strains; details: Escherichia coli
Staph. = test: Range of MIC for Staph. strains, including MRSA; details: Staphylococcus aureus, MRSA

In the case of `CCCCN(CC(=O)Nc1cc(N(C)C)c2c(c1O)C(=O)C1=C(O)[C@]3(O)C(=O)C(C(N)=O)=C(O)[C@@H](N(C)C)C3CC1C2)C(=O)OCOC(=O)c1ccc(C)cc1` (stereo partly drawn) [Example 3, ({[(2-{[(7S,10aS)-9-(aminocarbonyl)-4,7-bis(dimethylamino)-1,8,10a,11-tetrahydroxy-10,12-dioxo-5,5a,6,6a,7,10,10a,12-octahydrotetracen-2-yl]amino}-2-oxoethyl)(butyl)amino]carbonyl}oxy)methyl 4-methylbenzoate], the MIC (E. coli GC 2231; Mouse Serum pre-incubation) is reported as 2 µg/mL (≈ 2.57 µM), the MIC (E. coli GC 2231; Water pre-incubation) is reported as over 64 µg/mL and the MIC (E. coli GC 2232; Mouse Serum pre-incubation) is reported as 2 µg/mL (≈ 2.57 µM). The MIC (E. coli GC 2232; Water pre-incubation) was over 64 µg/mL, the MIC (E. coli GC 2272; Mouse Serum pre-incubation) was 1 µg/mL (≈ 1.29 µM) and the MIC (E. coli GC 2272; Water pre-incubation) was over 64 µg/mL. For the same compound, the MIC (E. coli GC 4560; Mouse Serum pre-incubation) was 0.5 µg/mL (≈ 0.643 µM), the MIC (E. coli GC 4560; Water pre-incubation) was 32 µg/mL (≈ 41.1 µM) and the MIC (E. coli GC 6465; Mouse Serum pre-incubation) was 8 µg/mL (≈ 10.3 µM). The MIC (E. coli GC 6465; Water pre-incubation) was over 64 µg/mL, the MIC (E. coli GC 3226; Mouse Serum pre-incubation) was 2 µg/mL (≈ 2.57 µM) and the MIC (E. coli GC 3226; Water pre-incubation) was over 64 µg/mL. The MIC (E. coli GC 2203; Mouse Serum pre-incubation) was 1 µg/mL (≈ 1.29 µM), the MIC (E. coli GC 2203; Water pre-incubation) was over 64 µg/mL and the MIC (S. typhimurium GC 2172; Mouse Serum pre-incubation) was 8 µg/mL (≈ 10.3 µM). It also gave an MIC (S. typhimurium GC 2172; Water pre-incubation) of over 64 µg/mL, an MIC (S. aureus GC 6466; Mouse Serum pre-incubation) of 1 µg/mL (≈ 1.29 µM) and an MIC (S. aureus GC 6466; Water pre-incubation) of 4 µg/mL (≈ 5.14 µM). It also gave an MIC (S. aureus GC 6467; Mouse Serum pre-incubation) of 4 µg/mL (≈ 5.14 µM), an MIC (S. aureus GC 6467; Water pre-incubation) of 32 µg/mL (≈ 41.1 µM) and an MIC (S. aureus GC 4536; Mouse Serum pre-incubation) of 2 µg/mL (≈ 2.57 µM). The MIC (S. aureus GC 4536; Water pre-incubation) was 4 µg/mL (≈ 5.14 µM), the MIC (S. aureus GC 6469; Mouse Serum pre-incubation) was 4 µg/mL (≈ 5.14 µM) and the MIC (S. aureus GC 6469; Water pre-incubation) was 32 µg/mL (≈ 41.1 µM). The MIC (E. faecalis GC 4555; Mouse Serum pre-incubation) was 1 µg/mL (≈ 1.29 µM), the MIC (E. faecalis GC 4555; Water pre-incubation) was 8 µg/mL (≈ 10.3 µM) and the MIC (E. faecalis GC 2265; Mouse Serum pre-incubation) was 2 µg/mL (≈ 2.57 µM). It also gave an MIC (E. faecalis GC 2265; Water pre-incubation) of 32 µg/mL (≈ 41.1 µM), an MIC (E. faecalis GC 2267; Mouse Serum pre-incubation) of 2 µg/mL (≈ 2.57 µM) and an MIC (E. faecalis GC 2267; Water pre-incubation) of 32 µg/mL (≈ 41.1 µM). It also gave an MIC (E. faecium GC 2243; Mouse Serum pre-incubation) of 1 µg/mL (≈ 1.29 µM), an MIC (E. faecium GC 2243; Water pre-incubation) of 4 µg/mL (≈ 5.14 µM) and an MIC (S. pneumoniae* GC 4465; Mouse Serum pre-incubation) of 0.12 µg/mL (≈ 0.154 µM). For the same compound, the MIC (S. pneumoniae* GC 4465; Water pre-incubation) was 0.25 µg/mL (≈ 0.321 µM), the MIC (S. agalactiae GC 4564; Mouse Serum pre-incubation) was 1 µg/mL (≈ 1.29 µM) and the MIC (S. agalactiae GC 4564; Water pre-incubation) was 2 µg/mL (≈ 2.57 µM). The MIC (E. coli; 20 h, read-out: Range of MIC, E. coli (Mouse Serum)) was 1 to 2 µg/mL (≈ 1.29 to 2.57 µM), the MIC (E. coli; read-out: Minimum inhibitory concentration (MIC), E. coli (mouse serum)) was 1 to 2 µg/mL (≈ 1.29 to 2.57 µM) and the MIC (E. coli; read-out: Minimum inhibitory concentration (MIC), E. coli (water)) was over 64 µg/mL. The MIC (E. coli; read-out: Range of MIC, E. coli (Water)) was over 64 µg/mL, the MIC (Staph.; read-out: Minimum inhibitory concentration (MIC), Staph. (mouse serum)) was 1 to 4 µg/mL (≈ 1.29 to 5.14 µM) and the MIC (Staph.; read-out: Minimum inhibitory concentration (MIC), Staph. (water)) was 4 to 32 µg/mL (≈ 5.14 to 41.1 µM). It also gave an MIC (Staph.; read-out: Range of MIC, Staph (Mouse Serum)) of 1 to 4 µg/mL (≈ 1.29 to 5.14 µM) and an MIC (Staph.; read-out: Range of MIC, Staph (Water)) of 4 to 32 µg/mL (≈ 5.14 to 41.1 µM).
